According to patent US20030158089A1, “Administrative agents via the SMVT transporter” (priority 2002, published 2003):
Read-outs that look alike come from different tables or passages of the source.

Legend:
hSMVT = target: T1, hSMVT (Homo sapiens, UniProt Q9Y289); test: Radiolabeled competition assay in SMVT-expressing CHO cells; type: cell-based
T1 sequence (Q9Y289 1-635): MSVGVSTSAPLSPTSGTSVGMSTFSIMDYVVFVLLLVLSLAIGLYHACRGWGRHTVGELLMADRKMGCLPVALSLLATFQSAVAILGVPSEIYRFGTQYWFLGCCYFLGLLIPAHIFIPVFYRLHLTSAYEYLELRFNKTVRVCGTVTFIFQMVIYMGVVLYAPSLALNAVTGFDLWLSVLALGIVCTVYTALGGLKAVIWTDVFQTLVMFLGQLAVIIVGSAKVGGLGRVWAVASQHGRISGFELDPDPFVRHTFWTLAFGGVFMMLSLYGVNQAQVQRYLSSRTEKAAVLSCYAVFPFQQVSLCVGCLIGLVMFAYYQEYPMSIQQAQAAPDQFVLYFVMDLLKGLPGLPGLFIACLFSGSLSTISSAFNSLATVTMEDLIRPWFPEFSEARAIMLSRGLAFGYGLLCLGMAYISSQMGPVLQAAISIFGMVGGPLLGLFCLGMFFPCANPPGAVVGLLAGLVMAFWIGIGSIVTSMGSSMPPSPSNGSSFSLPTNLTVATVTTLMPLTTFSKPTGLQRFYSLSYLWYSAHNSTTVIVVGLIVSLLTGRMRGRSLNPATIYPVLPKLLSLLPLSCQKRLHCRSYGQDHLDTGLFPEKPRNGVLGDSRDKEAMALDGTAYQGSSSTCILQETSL
Source text: The complete open reading frame of human SMVT (SLC5A6) was amplified from human cDNA prepared from intestinal mRNA. Gene-specific oligonucleotide primers were designed against Genbank sequences (NM-021095). Amplified PCR products were cloned into a modified version of the mammalian expression vector pcDNA3 (termed pMO) that was engineered to contain the 5′ and 3′ untranslated regions from the Xenopus beta-globin gene. All clones were completely sequenced and tested for function by transient transfection in HEK293 cells.
Stable clones of CHOK1 cells were obtained by electroporation, selection in G418, and single cell sorting using FACS ([…] cell sorting, Cytomation). Stable clones expressing SMVT were identified by enhanced uptake of radiolabeled substrates. For cell uptake studies, stable CHOK1 clones were seeded into polylysine coated 96-well microtiter plates and grown for 2-3 days. Cells were incubated with experimental solutions (combinations of radiolabeled and unlabeled compounds) for 30 minutes at room temperature, washed four times, and lysed in scintillation solution. Accumulation of radiolabeled molecules was measured in a microtiter scintillation plate reader (Perkin Elmer). Inhibition constants (IC50s) were calculated using curve-fitting software (Prism).

human SMVT (SLC5A6) = target: T2, human SMVT (SLC5A6) (Homo sapiens, UniProt Q9Y289); test: Two-electrode voltage-clamp transport currents in SMVT-expressing Xenopus oocytes; type: cell-based; conditions: for Vmax as a % of Biotin Vmax: % max response relative to biotin, transporter-expressing oocytes, test compound 0.5 mM
T2 construct: The complete open reading frame of human SMVT (SLC5A6) was amplified; expressed in transfected cells; host or cells: Xenopus oocytes injected with 10-30 ng cRNA transcribed from the pMO plasmid
T2 sequence (Q9Y289 1-635): T1 sequence (Q9Y289 1-635)
Source text: “Vmax” and “KM” of a compound for a transporter (e.g., the SMVT transporter) are defined in accordance with convention. Vmax is the number of molecules of compound transported per unit time at saturating concentration of the compound. KM is the concentration of the compound at which the compound is transported at half of Vmax. In general, a high value Of Vmax is desirable for a substrate of a transporter. A low value of KM is desirable for transport of low concentrations of a compound, and a high value of KM is desirable for transport of high concentrations of a compound. Vmax is affected both by the intrinsic turnover rate of a transporter (molecules/transporter protein) and transporter density in plasma membrane that depends on expression level. For these reasons, the intrinsic capacity of a compound to be transported by a particular transporter is usually expressed as the ratio (or percent) of the Vmax of the compound/Vmax of a control compound known to be a substrate for the transporter.
cRNA for oocyte expression was prepared by linearization of plasmid cDNA and in vitro transcription using T7 polymerase (Epicentre Ampliscribe kit). Xenopus oocytes were prepared and maintained as previously described (Collins et al., PNAS […]:5456-5460 (1997)) and injected with 10-30 ng RNA. Transport currents were measured 2-6 days later using two-electrode voltage-clamp (Axon Instruments). All experiments were performed using a modified oocyte ringers solution (90 mM NaCl, 2 mM KCl, 1.8 mM CaCl2, 1 mM MgCl2, and 10 mM NaHEPES, pH 7.4; in Na^+-free solutions […] choline chloride was substituted for NaCl). The membrane potential of oocytes was held at −60 mV and current traces acquired using PowerLab software (ADInstruments). Full 7-concentration dose-responses were performed for each compound. […] Half-maximal concentrations were calculated using non-linear regression curve fitting software (Prism) with the Hill co-efficient fixed to 1. To ensure that currents were specific for the over-expressed transporter, all compounds were tested against uninjected oocytes.

[1] = rat, 2 μM
[2] = rat, 2 μM, pH 7.4
[3] = Caco-2 homogenate S9 stability; type: in vitro ADME; conditions: Caco-2 S9 (0.5 mg protein per mL), 37° C, 5 μM
Description: Caco-2 Homogenate S9 Stability: Caco-2 cells were grown for 21 days prior to harvesting. Culture medium was removed and cell monolayers were rinsed and scraped off into ice-cold 10 mM sodium phosphate/0.15 M potassium chloride, pH 7.4. Cells were lysed by sonication at 4° C. using a probe sonicator. Lysed cells were then transferred into 1.5 mL centrifuge vials and centrifuged at 9000 g for 20 min at 4° C. The resulting supernatant (Caco-2 cell homogenate S9 fraction) was aliquoted into 0.5 mL vials and stored at −80° C. until used.
For stability studies, conjugate (5 μM) was incubated in Caco-2 homogenate S9 fraction (0.5 mg protein per mL) for 60 min at 37° C. Concentrations of intact conjugate and released drug were determined at zero time and 60 minutes using LC/MS/MS.

Pancreatin = Pancreatin stability; type: in vitro ADME, porcine; conditions: 1 % (w/v) pancreatin, pH 7.5, 37° C, 5 μM
Description: Pancreatin Stability: Stability studies were conducted by incubating conjugate (5 μM) with 1 % (w/v) pancreatin (Sigma, P-1625, from porcine pancreas) in 0.025 M Tris buffer containing 0.5 M NaCl (pH 7.5) at 37° C. for 60 min. The reaction was stopped by addition of 2 volumes of methanol. After centrifugation at 14,000 rpm for 10 min, the supernatant was removed. and analyzed by LC/MS/MS.

[4] = In vitro cleavage of conjugate in rat plasma; conditions: 37° C, 2.0 μM
[5] = In vitro cleavage of conjugate in human plasma; conditions: 37° C, 2.0 μM
[6] = In vitro cleavage of conjugate in rat liver S9; conditions: Rat Liver S9 (0.5 mg/mL), NADPH, 37° C, 2.0 μM
[7] = In vitro cleavage of conjugate in human liver S9; conditions: Human Liver S9 (0.5 mg/mL), NADPH, 37° C, 2.0 μM
in vivo = conditions: male, Sprague-Dawley, rat, po
Description: Test compounds were administered as an intravenous bolus injection or by oral gavage to groups of four to six adult male Sprague-Dawley rats (weight approx 250 g) as solutions in water or water/ethanol (90:10). The doses ranged between 10 and 200 mg per kg body weight (i.e. 0.04-0.8 mmole/kg). Animals were fasted overnight before the study and for 4 hours post-dosing. Blood samples (1.0 mL) were obtained via a jugular vein cannula at intervals over 24 hours after oral dosing. Blood was processed immediately for plasma and plasma was frozen at −80° C. until analyzed.
Concentrations of test compound in plasma were determined using an API 2000 LC/MS/MS instrument equipped with an Agilent 1100 binary pump and an Agilent autosampler. The column was a Zorbax XDB C8 4.6*150 mm column at room temperature. The mobile phases were 0.1% formic acid (A) and acetonitrile with 0.1% formic acid (B). The gradient condition was: 5% B for 1 min, increasing to 98% B in 3 min and maintained for 2.5 min. […] The peaks were integrated using Analyst 1.1 quantitation software.
Oral bioavailability (F) was determined by comparison of the area under the concentration versus time curve (AUC) following oral administration of the conjugate or intravenous administration of the parent agent at equimolar doses.

human or rat SMVT = conditions: voltage-clamped Xenopus oocytes; cited from earlier work
[8] = radiolabeled competition assay in SMVT-expressing CHO cells, read-out: IC50

In the case of `CC(OC(=O)NCC1(CC(=O)O)CCCCC1)OC(=O)C(C)C` (stereo not drawn) [(6), 1-{[(α-Isobutanoyloxyethoxy)carbonyl]aminomethyl}-1-Cyclohexane Acetic Acid], the IC50 (hSMVT; [8]) is reported as 100 µM, the “Vmax as a % of Biotin Vmax” value (human SMVT (SLC5A6)) is reported as 46% and the “% of Drug Released from Conjugate after 60 min” value (from here on “% of Drug Released”) [1] is reported as 23%. The “% of Drug Released” value [2] was 52%.
With `CCC(=O)OC(OC(=O)NCC1(CC(=O)O)CCCCC1)C(C)C` (stereo not drawn) [(9), 1-{[(α-Propanoyloxyisobutoxy)carbonyl]aminomethyl}-1-Cyclohexane Acetic Acid] the “Vmax as a % of Biotin Vmax” value (human SMVT (SLC5A6)) was 19%, the “% of Drug Released” value [3] was 65% and the “% of Drug Released” value (Pancreatin) was 25%. The “% of Drug Released” value [4] was 69%, the “% of Drug Released” value [5] was 7% and the “% of Drug Released” value [6] was 62%. For the same molecule, the “% of Drug Released” value [7] was 83%.
For `CC(C)(C)C(=O)OCOC(=O)NCC1(CC(=O)O)CCCCC1` [(1), 1-{[(α-Pivaloyloxymethoxy)carbonyl]aminomethyl}-1-Cyclohexane Acetic Acid], the IC50 (hSMVT; [8]) was 450 µM and the “Vmax as a % of Biotin Vmax” value (human SMVT (SLC5A6)) was 21%.
For `O=C(O)CCCC[C@@H]1SC[C@@H]2NC(=O)N[C@@H]21` [biotin], the “plasma concentration at the highest dose” value (in vivo) was ~4 µg/mL, the bioavailability (in vivo; 25 mg/kg) was 100% and the bioavailability (in vivo; 200 mg/kg) was 27%. The Km (human or rat SMVT) was 5 to 20 µM.
With “N-acetyl-D-Lys(ε-biotin)-D-Arg-D-Arg-D-Arg-D-Gln-D-Arg-D-Arg-D-Lys-D-Lys-D-Arg-NH2 [biotinylated decapeptide, reference compound]” the “specific sodium-dependent current (SMVT substrate activity)” value (human SMVT (SLC5A6); 20 μM peptide, presence and absence of 100 mM Na+) was “no specific, sodium-dependent current”.
In the case of `CC(C)(CO)[C@@H](O)C(=O)NCCC(=O)[O-].[Na+]` [pantothenate, sodium pantothenate], the “plasma concentration at the highest dose” value (in vivo) is reported as ~4 µg/mL, the bioavailability (in vivo; 25 mg/kg) is reported as 35% and the bioavailability (in vivo; 200 mg/kg) is reported as 10%.
For `NCC1(CC(=O)O)CCCCC1` [Gabapentin, reference compound], the IC50 (hSMVT) was > 500 µM and the “Vmax as a % of Biotin Vmax” value (human SMVT (SLC5A6)) was 0%.
